Laboratory results published in ChEMBL document CHEMBL1156829 (Proc Natl Acad Sci U S A, 2008).

How the values were obtained:
[1] = NOVARTIS: Cytotoxicity against human hepatocellular carcinoma cell line (Huh7); assay type: toxicity, cell-based, Huh-7; conditions: Huh7 cells (hepatocellular carcinoma cell line)
[2] = test system: Plasmodium falciparum; assay: NOVARTIS: Inhibition of Plasmodium falciparum W2 (drug-resistant) proliferation in erythrocyte-based infection assay; assay type: functional, organism-based; conditions: read-out: EC50
[3] = test system: Plasmodium falciparum; assay: NOVARTIS: Inhibition of Plasmodium falciparum 3D7 (drug-susceptible) proliferation in erythrocyte-based infection assay; assay type: functional, organism-based

Row | SMILES | CC50 [1] | EC50 ([2]; Plasmodium falciparum, W2) | EC50 ([3]; Plasmodium falciparum, 3D7) | EC50 [2] | EC50 [3]
1 | CC(=O)N(Cc1ccc(F)cc1)C1=C(NCCc2ccccc2)C(=O)c2ccccc2C1=O | 2910 nM | 18.2 nM | 5.93 nM |  | 
2 | CC(=O)Nc1ccc2c(c1)C(=O)N(C(CC(C)(C)C)C(=O)NC1CCCCC1)[C@@H](CCC(=O)O)C(=O)N2 (some centres undefined) | 6180 nM | 51.6 nM | 868 nM |  | 
3 | CCOC(=O)c1c(NC(=O)C(C)Sc2nnc(CNC(=O)c3ccco3)n2-c2cccc(C(F)(F)F)c2)sc2c1CCC2 (centres undefined) | > 100000 nM | 649 nM | > 12500 nM |  | 
4 | Cc1cc(NCCc2ccccc2)nc2cc(O)ccc12 | 29500 nM | 69.5 nM | 377 nM |  | 
5 | COc1cccc(NC(=O)N(Cc2ccccc2)C(C)c2nc3ccccc3c(=O)n2-c2cc(C)ccc2OC)c1 (centres undefined) | > 10000 nM | 1220 nM | 1240 nM |  | 
6 | Cc1cc(C)cc(-n2c(C)cc(/C=C3/SC(=Nc4ccc(Br)cc4)NC3=O)c2C)c1 | > 10000 nM | 588 nM | 325 nM |  | 
7 | CCNc1ncnc2sc(C(=O)NCc3csc(C)n3)c(C)c12 | > 100000 nM | > 8590 nM | > 12500 nM |  | 
8 | COc1ccccc1C(=O)Oc1ccccc1-c1nc2ccccn2c1NC(C)(C)CC(C)(C)C | > 10000 nM | 40.8 nM | 1580 nM |  | 
9 | O=C(O)c1nsnc1C(O)C(O)C(=O)O (centres undefined) | > 10000 nM | > 1240 nM | > 1410 nM |  | 
10 | COc1ccc2cc(CNCCc3cccc(Cl)c3)c(N3CCC(=O)N(CCN(C)C)CC3)nc2c1 | > 10000 nM | 77.2 nM | > 1250 nM |  | 
11 | CC(C)(C)CC(C)(C)Nc1c(-c2ccccc2OC(=O)c2cccc(Cl)c2)nc2ccccn12 | > 10000 nM | 41.6 nM | 629 nM |  | 
12 | CCOc1cc2c(cc1OCC)C(c1cc(Cl)ccc1O)NCC2 (centres undefined) | 24200 nM | 96.4 nM | 404 nM |  | 
13 | O=C(CN1CCN(S(=O)(=O)c2cccc([N+](=O)[O-])c2)CC1)Nc1ccc(OCc2ccccc2)cc1 | > 100000 nM | 2650 nM | 3910 nM |  | 
14 | Cc1ncc(CN2CCC(C(=O)Nc3ccc(-c4nc5ccccc5o4)cc3)CC2)s1 | > 100000 nM | 721 nM | 740 nM |  | 
15 | COc1ccc2nc(-c3ccccc3)cc(NCCN(C)C)c2c1 | > 10000 nM | 478 nM | 171 nM |  | 
16 | O=C(CCl)Nc1ccc(N2CCCCC2)cc1 | 41200 nM | 417 nM | 797 nM |  | 
17 | O=C(CSc1nc2cc3c(cc2c(=O)n1Cc1ccco1)OCO3)Nc1cc(C(F)(F)F)ccc1Cl | > 100000 nM | 326 nM | 247 nM |  | 
18 | COC(=O)c1ccc2c(c1)C(=O)c1ccccc1C2C1c2ccccc2C(=O)c2cc(C(=O)OC)ccc21 (centres undefined) | > 10000 nM | 397 nM | 856 nM |  | 
19 | CC(C)Nc1ccc(Nc2ccnc3cc4ccccc4cc23)cc1 | 5400 nM | 276 nM | 31.8 nM |  | 
20 | COc1ccc(N2CCN(C(CNC(=O)CC(C)C)c3ccco3)CC2)cc1 (centres undefined) | > 100000 nM | 767 nM | 6690 nM |  | 
21 | COC(=O)C1=CNC=C(C(=O)OC)C1c1ccc(Cl)c(Cl)c1 | > 64900 nM | 105 nM | 114 nM |  | 
22 | COc1ccccc1CNc1ncc(C(=O)NCc2ccccc2)c(NCCc2ccccc2)n1 | > 10000 nM | > 1300 nM | 1280 nM |  | 
23 | CCOc1ccc(NCc2ccc(O)c3ncccc23)cc1 | > 55600 nM | > 4370 nM | 7610 nM |  | 

Row | SMILES | CC50 [1] | EC50 ([2]; Plasmodium falciparum, W2) | EC50 ([3]; Plasmodium falciparum, 3D7) | EC50 [2] | EC50 [3]
24 | CC(C)(C)c1ccc(C(=O)NCCCCNc2ccnc3cc(Cl)ccc23)cc1 | > 10900 nM | 230 nM | 176 nM |  | 
25 | COc1nncc(-c2cnnc(SC)n2)n1 | 28400 nM | 219 nM | 237 nM |  | 
26 | CC1=C[C@H]2O[C@@H]3C[C@H]4OC(=O)C=CC=C[C@H]([C@@H](C)O)OCC[C@@H](C)[C@H](O)C(=O)OC[C@@]2(CC1)[C@]4(C)[C@@]31CO1 | 6.04 nM |  |  | < 0.572 nM | < 0.572 nM
27 | COc1ccc(C2CC(=O)C3=C(C2)NC(C)=C(C(=O)OC2CCCC2)C3c2ccc(SC)cc2)cc1OC (centres undefined) | > 100000 nM | 36.5 nM | 249 nM |  | 
28 | CCN1CCN(Cc2ccc(-c3cc4c(N[C@H](C)c5ccccc5)ncnc4[nH]3)cc2)CC1 [AEE-788] | 27800 nM | 28.5 nM | 1380 nM |  | 
29 | CCN(CC)CCN(Cc1cc2ccc(C)cc2[nH]c1=O)C(=S)NC(C)c1ccccc1 (centres undefined) | 21500 nM | 1340 nM | 1690 nM |  | 
30 | O=C(CC(=NNc1nc(NN=C(CC(=O)C(F)(F)F)C(F)(F)F)nc(N(c2ccccc2)c2ccccc2)n1)C(F)(F)F)C(F)(F)F | > 10000 nM | 1010 nM | 670 nM |  | 
31 | OCCNc1nc(Nc2ccccc2)nc2ccccc12 | 47500 nM | 626 nM | 167 nM |  | 
32 | CCCCN1C(=O)/C(=C2/Sc3ccccc3N2C)SC1=Nc1cc(C)ccc1C | > 10000 nM | > 175 nM | > 581 nM |  | 
33 | O=C(NCc1ccco1)c1cccc(Cl)c1Cl | > 10000 nM | 1340 nM | > 1250 nM |  | 
34 | C[N+](C)(CCCC(=O)c1ccc(C(=O)CCC[N+](C)(C)Cc2ccccc2Cl)cc1)Cc1ccccc1Cl | > 100000 nM | 113 nM | 21.3 nM |  | 
35 | COc1ccc(C2CC(=O)C3=C(C2)NC(C)=C(C(=O)OC(C)C)C3c2ccccc2C)cc1OC (centres undefined) | > 100000 nM | 14.5 nM | 9.98 nM |  | 
36 | CC(C)CNC(=O)c1cnc(NCCC2CCCN2C)nc1NCC1CCCCC1 (centres undefined) | > 10000 nM | > 1250 nM | 920 nM |  | 
37 | CCCCCc1cc(O)c2c3c(c(=O)oc2c1)CN(C)CC3 | > 96800 nM | 37.6 nM | 49.4 nM |  | 
38 | CCn1c2c(c(=N)c3ccccc31)CCC2 | > 100000 nM | 954 nM | 341 nM |  | 
39 | Cc1ccc(CN2CCc3nc(N4CCCCC4)sc3C2)s1 | > 10000 nM | 10.5 nM | 14.1 nM |  | 
40 | CC1CN(C(=O)CCCSc2nnc(Cc3ccccc3)n2-c2ccc(Cl)c(Cl)c2)CC(C)O1 (centres undefined) | > 100000 nM | 2230 nM | > 12500 nM |  | 
41 | CN1CCN(C(=O)c2cccc(-c3nc(-c4ccncc4)cnc3N)c2)CC1 | > 10000 nM | > 1250 nM | > 1000 nM |  | 
42 | Fc1cc(F)c(C2SCCN2C(=S)Nc2cccc(C(F)(F)F)c2)c(F)c1 (centres undefined) | > 100000 nM | 187 nM | 273 nM |  | 
43 | O=C1c2ccccc2-[n+]2ccc3c([nH]c4ccccc43)c21 [FASCAPLYSIN CHLORIDE] | 589 nM | 46.4 nM | 74.9 nM |  | 
44 | CC[C@@H](C(=O)[C@@H](C)C(O)[C@H](C)CCc1ccc(C)c(O)c1C(=O)O)C1O[C@](CC)(C2CC[C@](O)(CC)[C@H](C)O2)C[C@@H]1C (some centres undefined) | > 10000 nM | 315 nM | 541 nM |  | 
45 | Cn1cc([N+](=O)[O-])c(C(=O)NN=Cc2c[nH]c3ccccc23)n1 | > 10000 nM | 1100 nM | 1940 nM |  | 
46 | O=C(COC(c1cccs1)c1cccnc1Cl)N1CCN(CCO)CC1 (centres undefined) | > 100000 nM | 1290 nM | > 12500 nM |  | 

Row | SMILES | CC50 [1] | EC50 ([2]; Plasmodium falciparum, W2) | EC50 ([3]; Plasmodium falciparum, 3D7) | EC50 [2] | EC50 [3]
47 | N#CCCN(CC1CCCO1)C(=O)Nc1ccc(Cl)c(C(F)(F)F)c1 (centres undefined) | > 10000 nM | > 523 nM | > 1020 nM |  | 
48 | CCCCCCN(C(=O)COCc1ccccc1)C(CC)c1nc2ccccc2c(=O)n1-c1ccc(F)c(Cl)c1 (centres undefined) | > 10000 nM | 821 nM | 607 nM |  | 
49 | CCOC(=O)c1cnc2ccc(Cl)cc2c1NCCCN(C)C | 48200 nM | 135 nM | 826 nM |  | 
50 | COc1ccc(N2C(N)=NC(N)=NC2(C)C)cc1 | > 10000 nM | > 1250 nM | 13.8 nM |  | 
51 | Fc1ccccc1Nc1nc(NCc2ccccc2)c2ccccc2n1 | 8860 nM | 918 nM | 463 nM |  | 
52 | CC1(C)N=C(N)N=C(N)N1c1ccc(I)cc1 | > 100000 nM | > 12500 nM | 7.23 nM |  | 
53 | CN(CCCNc1ccnc2cc(Cl)ccc12)C(=O)c1ccc(Br)cc1 | 2610 nM | 13.4 nM | 688 nM |  | 
54 | CC[n+]1c(/C=C/c2ccc(Cl)cc2)ccc2ccccc21 | > 10000 nM | < 8.16 nM | 60.8 nM |  | 
55 | CCOC(=O)c1cnc2ccc(CC)cc2c1O | > 100000 nM | 525 nM | 716 nM |  | 
56 | CC(=O)OC1CCC2(C)C(CCC3C2CCC2(C)C3CC(O)C2(O)C(C)=O)C1 (centres undefined) | > 10000 nM | > 826 nM | > 1250 nM |  | 
57 | CCCC(=O)N1c2ccc(OC)cc2-c2c(ssc2=S)C1(C)C | > 100000 nM | 867 nM | 791 nM |  | 
58 | CCCc1cc2c(=O)c(-c3ccc4c(c3)OCO4)c(CC)oc2cc1OC(C)C | > 100000 nM | > 12500 nM | 5840 nM |  | 
59 | CCCNC(=O)CCCCCSc1nc2ccccc2c(=O)n1-c1ccc(F)cc1 | > 11500 nM | > 1180 nM | 780 nM |  | 
60 | C=CCN1Cc2ccc(C(=O)NCc3ccccc3)cc2N=C1c1ccc(F)cc1 | > 12600 nM | < 14.2 nM | > 1250 nM |  | 
61 | CCCCc1ccc(C(=O)NCCCN(C(=O)Nc2ccc([N+](=O)[O-])cc2)c2ccccc2)cc1 | 2680 nM | 1210 nM | > 1250 nM |  | 
62 | COc1ccc(Cn2c(SCC(=O)Nc3ccccc3OC)nc3ccsc3c2=O)cc1 | > 10000 nM | > 1250 nM | > 778 nM |  | 
63 | Brc1ccc(-c2cn3c([n+]2-c2ccccc2)SCC3)cc1 | > 100000 nM | 303 nM | 335 nM |  | 
64 | CCSc1ccc2ccccc2[n+]1CC | > 100000 nM | 227 nM | 179 nM |  | 
65 | O=C(O)CC(c1ccc2c(c1)OCO2)N1CCS(=O)(=O)CC1 (centres undefined) | > 10000 nM | > 196 nM | > 1250 nM |  | 
66 | COc1ccc(OC)c(NC2=C(Cl)C(=O)N(c3ccc(C)c(Cl)c3)C2=O)c1 | > 100000 nM | > 12500 nM | 5070 nM |  | 
67 | COc1cccc(NCC(O)Cn2c3ccc(Cl)cc3c3cc(Cl)ccc32)c1 (centres undefined) | 51300 nM | 1190 nM | 2130 nM |  | 
68 | CCc1ccc2[nH]c(=O)c(CN(CCN(C)C)C(=S)NCCCN(C)C)cc2c1 | > 10000 nM | > 1460 nM | 1760 nM |  | 
